Results: paper PMC6669564, “Cytotoxic Sesquiterpenoid Quinones and Quinols, and an 11-Membered Heterocycle, Kauamide, from the Hawaiian Marine Sponge Dactylospongia elegans” (Marine Drugs, 2019)

Molecular target: β-secretase 1 (BACE1) (Homo sapiens, UniProt P56817)
Assay: HitHunter BACE1 enzyme fragment complementation chemiluminescence assay, […] h incubation, dose response
Assay type: biochemical

β-secretase 1 (BACE1), sequence (P56817 46-457): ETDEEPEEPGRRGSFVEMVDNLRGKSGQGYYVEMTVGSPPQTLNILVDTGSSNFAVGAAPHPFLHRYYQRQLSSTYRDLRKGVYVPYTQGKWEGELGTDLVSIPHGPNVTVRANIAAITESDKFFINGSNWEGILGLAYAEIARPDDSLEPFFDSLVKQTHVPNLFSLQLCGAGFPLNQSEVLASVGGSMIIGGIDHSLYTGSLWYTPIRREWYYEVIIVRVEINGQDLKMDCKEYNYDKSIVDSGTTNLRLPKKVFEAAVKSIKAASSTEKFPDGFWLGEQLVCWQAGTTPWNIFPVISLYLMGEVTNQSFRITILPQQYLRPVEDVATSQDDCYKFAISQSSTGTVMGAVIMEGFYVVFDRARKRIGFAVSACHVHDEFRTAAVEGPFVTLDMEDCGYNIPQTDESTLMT

| IC50 [µM] | SMILES |
| --- | --- |
| 65 | C=C1CCC[C@H]2[C@](C)(CC3=C(O)C(=O)C=C(OC)C3=O)[C@@H](C)CC[C@]12C [compound 1, ilimaquinone] |
| 78 | C=C1CCC[C@H]2[C@](C)(CC3=C(O)C(=O)C=C(N)C3=O)[C@@H](C)CC[C@]12C [compound 3, smenospongine] |
